Structures are written as SMILES.

For test [1], the system named is Plasmodium falciparum. Put plainly: Antimalarial activity against Plasmodium falciparum Nigerian. In kind it is functional, organism-based.
For test [2], the system named is Plasmodium vinckei petteri. Description: Antimalarial activity against Plasmodium vinckei petteri 279BY infected intraperitoneal dosed Swiss mice (Mus musculus). Particulars: ip. It counts as functional.
Test [3] has as its system Plasmodium vinckei petteri. Put plainly: Antimalarial activity against Plasmodium vinckei petteri 279BY infected peroral dosed Swiss mice (Mus musculus). It counts as functional. Particulars: po.
Test [4] relates to Plasmodium falciparum. Description: microbe, parasite or virus in culture. Particulars: FCM29.
Description: Antimalarial activity against Plasmodium falciparum FCM29
For test [5], the system named is Plasmodium falciparum. Put plainly: microbe, parasite or virus in culture. Particulars: W2.
Description: Antimalarial activity against Plasmodium falciparum W2

In turn, `CCNC(=O)O/N=C(\C)NCCCCCCCCCCCCN/C(C)=N/OC(=O)NCC` registered an IC50 in test [1] of 0.093 µM. For the same compound, the ED50 is over 10 mg/kg in test [2] and over 90 mg/kg in test [3].
The matching figures for `C/C(=N\OC(=O)Nc1ccccc1)NCCCCCCCCCCCCN/C(C)=N/OC(=O)Nc1ccccc1`: 0.135 µM, 10 mg/kg and over 90 mg/kg.
Taken in the same sequence, the figures for `CO/N=C(\C)NCCCCCCCCCCCCN/C(C)=N/OC` were 4.35 µM, over 10 mg/kg and 110 mg/kg.
Taken in the same sequence, the figures for `C/C(=N\O)NCCCCCCCCCCCCN/C(C)=N/O` were 0.31 µM, 9.2 mg/kg and 90 mg/kg.
Turning to `C/C(=N\OC(=O)c1ccccc1)NCCCCCCCCCCCCN/C(C)=N/OC(=O)c1ccccc1`, in test [1], the IC50 worked out at 0.0687 µM. Further, the 50% effective dose (ED50) in test [2] is over 9 mg/kg; in test [3], over 90 mg/kg.
The matching figures for `Cc1noc(=O)n1CCCCCCCCCCCCn1c(C)noc1=O`: 7.1 µM, over 9 mg/kg and 62 mg/kg.
`CC(=N)NCCCCCCCCCCCCNC(C)=N`: the ED50 in test [2] is 3.1 mg/kg; in test [3], over 200 mg/kg. Further, the IC50 in test [4] was 0.004 µM; in test [5] it was 0.0081 µM.
`C/C(=N\OS(C)(=O)=O)NCCCCCCCCCCCCN/C(C)=N/OS(C)(=O)=O` registered an IC50 in test [1] of 0.012 µM. Also, the ED50 in test [2] was found to be 4.7 mg/kg; in test [3], 42 mg/kg.
Taken in the same sequence, the figures for `CC(=O)O/N=C(\C)NCCCCCCCCCCCCN/C(C)=N/OC(C)=O` were 1.8 µM, 7.1 mg/kg and over 90 mg/kg.
Taken in the same sequence, the figures for `CCOP(=O)(OCC)O/N=C(\C)NCCCCCCCCCCCCN/C(C)=N/OP(=O)(OCC)OCC` were 0.0096 µM, over 9 mg/kg and over 90 mg/kg.

As a reminder, the IC50 is the concentration that inhibits the measured activity by half. A higher IC50 goes with lower potency. For orientation: ED50 means the dose that gives a 50% effect, or the effect in half of the subjects. Lower therefore signals greater potency.

(Values after ChEMBL document CHEMBL1143795, “Synthesis and antimalarial activity of new 1,12-bis(N,N'-acetamidinyl)dodecane derivatives” (Bioorg Med Chem Lett, 2007).)
